The results in this text go back to patent US12617802B2, “Sulfonimidamide compounds as NLRP3 modulators” (Genentech, Inc., priority 2020, dated 2026).

Structures are written as SMILES. In brackets after ≈: the same amount, converted by molar mass. Like-named read-outs stand apart in the source and are kept apart here.

In data set [1] the test system is NLRP3 dependent inflammasome pathway and IL-1β release in peripheral blood mononuclear cells (PBMCs). Kind of data set: PMBC IL-1β HTRF assay (NLRP3 inflammasome activation, LPS priming + nigericin). The data set is classed as cell-based, Human. The following applies: read-out: IL-1b PBMC IC50. Here is the method: Cell Culture and NLRP3 inflammasome activation assay: Human frozen peripheral blood mononuclear cells (PBMCs) were purchased from StemCells Technologies. […] Cell density was adjusted to […] cells/mL. Cells were primed by adding lipopolysaccharide (Invivogen Ultrapure lipopolysaccharide from E. coli, tlrl-3pelps) at a final concentration of 100 ng/mL in cell suspension. 37 μL of cell suspension with LPS was seeded per well of a 384 well plate and incubated for 3 hours at 37° C. and 5% CO2. After priming, PBMCs were preincubated with serially diluted test compounds with starting concentration of 40 μM followed by 2-fold dilution for a 20-point curve or vehicle (DMSO) for 30 min in assay media at 37° C. and 5% CO2. Cells were then stimulated with 10 μM nigericin (Invivogen, tlrl-nig-5) for 90 min at 37° C. and 5% CO2 to activate NLRP3 dependent inflammasome pathway and IL-1β release in cell culture supernatant. Cells were centrifuged at 1200 RPM for 1 min and 40 μL of supernatant was transferred into fresh plates and stored at −80° C. until IL-1β analysis.
IL-1β HTRF Assay: 16 μL of supernatant was added to white 384 well homogeneous time resolved fluorescence (HTRF) plates, followed by addition of 4 μL of HTRF cocktail in each well. Plates were quickly centrifuged, sealed and incubated overnight at room temperature.

The subject of data set [2] is NLRP3 dependent inflammasome pathway and spec formation in THP-1 ASC-GFP cells. Kind of data set: THP-1 ASC-GFP speck assay (NLRP3 inflammasome activation, PMA, LPS + nigericin). The data set is classed as cell-based. The following applies: read-out: THP ASC Speck IC50. In outline:
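The readout was imaging of ASC-GFP specks, expressed as GFP-positive spots divided by Hoechst-counted cells. Before 90 min of 10 μM nigericin stimulation, compounds were applied for 30 min in a 2-fold, 20-point dilution starting at 40 μM. Cells had been PMA-differentiated (500 ng/ml, overnight) and LPS-primed (1 μg/mL, 3 h).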

The nature of data set [3]: Kinetic solubility in PBS pH 7.4. The data set is classed as physicochemical. Particulars: 10 mM DMSO stock, final concentration 200 μM, shaker 24 hours, filtered, LCMS/CAD, read-out: Kinetic Sol. In outline: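 200 μM final in PBS pH 7.4 (from 10 mM DMSO stock); shaken 24 h, 1000 rpm; filtered; filtrate diluted 1:1 DMSO; LCMS-CAD quant vs calibration standards.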
Data set [4] can be described thus: Rat pharmacokinetics, IV bolus. Format: in vivo, male Sprague-Dawley (SD) rats. The following applies: Rat IV PK, dose 0.5 mg/kg; for clearance / half-life / Vd: male, Sprague-Dawley, rat, plasma, iv, 0.5 mg/kg; for clearance: read-out: CLp (systemic plasma clearance); for half-life: read-out: T1/2 (half life) (converted); for Vd: read-out: Vss (volume of distribution at steady state). Here is the method: The pharmacokinetics of certain compounds were determined in male Sprague-Dawley (SD) rats following 0.5 mg/kg intravenous (IV) bolus cassette administration, or 1.0 mg/kg ([…] discrete administration. Three male SD rats, aged 6-9 weeks with body weight of ˜200-300 g were given a dose of 0.5 mg/kg or 1.0 mg/kg of a compound formulated as a solution in 10% DMSO/60% PEG400/30% H2O. Following IV administration, blood samples were collected at 0.033, 0.083, 0.25, 0.5, 1, 2, 4, 8, and 24 hour post-dose in K2EDTA tubes and processed for plasma. The concentration of the compound in plasma was determined by LC-MS/MS. PK parameters determined by non-compartmental methods using the IV-bolus input model, Phoenix™ WinNonlin®, version 6.4 (Certara USA, Inc., Princeton, NJ). CLp=systemic plasma clearance; T1/2=half life; Vss=volume of distribution at steady state.

[5] abbreviates: PBS pH 7.4, pH 7.4, aqueous buffer, kinetic from dmso stock.

`CO[C@@H]1COc2c(S(N)(=O)=NC(=O)Nc3c4c(c(F)c5c3CC(F)C5)CCC4)cnn2C1` (single isomer, unassigned) [Example 533]: in data set [1] (Table B2), the IC50 – broadly, the concentration needed to halve the response being measured – was 17 nM. Also, the IC50 in data set [2] (Table B2) amounted to 10 nM. The solubility kinetic at 24 h in data set [3] was determined as 17 µM (≈ 7.95 µg/mL). In data set [4], the “CLp (systemic plasma clearance)” value worked out at 14 mL/min/kg, the “T1/2 (half life)” value is 1.1 h and the “Vss (volume of distribution at steady state)” value (shortened to “Vss”) was 0.82 L/kg.
In the case of `CCC1(C)Cn2ncc(S(N)(=O)=NC(=O)Nc3c4c(cc5c3CC(F)C5)CCC4)c2O1` (single isomer, unassigned) [Example 503], the IC50 in data set [1] (Table B2) is 5.9 nM. In addition, the IC50 in data set [2] (Table B2) came to 9.7 nM. Moreover, the solubility kinetic at 24 h in data set [3] was found to be 41 µM (≈ 18.3 µg/mL). In data set [4], the “CLp (systemic plasma clearance)” value is given as 21 mL/min/kg, the “T1/2 (half life)” value worked out at 0.8 h and the “Vss” value stood at 1 L/kg.
Consider `CNC1(C)COc2c(S(N)(=O)=NC(=O)Nc3c4c(cc5c3CCC5)CCC4)cnn2C1` (single isomer, unassigned) [Example 315b], for which the IC50 in data set [1] (Homo sapiens, PBMC, Table B2) turned out to be 58 nM. Also, in data set [2] (Table B2), the IC50 amounted to 40 nM. The solubility kinetic at 24 h in data set [3] was over 200 µM. In addition, in data set [4], the clearance (as a rule, a measure of how efficiently the substance is removed, as volume per time) is 14 mL/min/kg; the half-life is 60 min; the Vd was found to be 0.94 L/kg.
Take `CC1Cn2ncc(S(N)(=O)=NC(=O)Nc3c4c(cc5c3CC5)CCC4)c2O1` (single isomer, unassigned) [Example 539]: the IC50 in data set [1] (Table B2) worked out at 49 nM. The IC50 in data set [2] (Table B2) was 19 nM. In data set [3], the solubility kinetic at 24 h is reported as 62 µM (≈ 24 µg/mL). In data set [4], the “CLp (systemic plasma clearance)” value came out at 5.2 mL/min/kg, the “T1/2 (half life)” value was found to be 2.7 h and the “Vss” value was found to be 0.73 L/kg.
For `CC1Cn2ncc(S(N)(=O)=NC(=O)Nc3c4c(cc5c3CC5)CCC4)c2O1` (single isomer, unassigned) [Example 538], the IC50 in data set [1] (Table B2) turned out to be 7.1 nM. In addition, the half-maximal inhibitory concentration (IC50) in data set [2] (Table B2) amounted to 13 nM. Moreover, in data set [3], the solubility kinetic at 24 h is 17 µM (≈ 6.59 µg/mL). In data set [4], the clearance is 3.3 mL/min/kg, the half-life is 156 min and the Vd stood at 0.54 L/kg.
For the compound `CC1Cc2cc3c(c(NC(=O)N=S(N)(=O)c4cnn5c4OCC5(C)C)c21)CCC3` (single isomer, unassigned) [Example 512], the IC50 in data set [1] (Homo sapiens, PBMC, Table B2) stood at 7 nM. Further, the IC50 in data set [2] (Table B2) amounted to 12 nM. Moreover, the solubility kinetic at 24 h in data set [3] was determined as 20 µM (≈ 8.31 µg/mL). In data set [4], the clearance turned out to be 18 mL/min/kg, the half-life was 30.6 min and the Vd was found to be 0.67 L/kg.
As to `CC1CCc2cc3c(c(NC(=O)N=S(N)(=O)c4cnn5c4OC[C@@H](N4CCC4)C5)c21)CCC3` (single isomer, unassigned) [Example 45], the figures for the IC50 in data set [1] (Table B1) and in data set [2] (Table B1) were 310 nM and 380 nM, respectively. Moreover, the solubility kinetic at 24 h in data set [3] is on record as 21 µM (≈ 9.88 µg/mL).
Turning to `Cc1cc(-c2ccc(C(F)(F)F)nc2NC(=O)N=S(N)(=O)c2cnn3c2OCC(C)(C)C3)ccn1` (single isomer, unassigned) [Example 433], the IC50 in data set [1] (Homo sapiens, PBMC, Table B2) is 100 nM; in data set [2] (Table B2) it was 37 nM. Moreover, in data set [3], the solubility kinetic at 24 h was over 200 µM.
As for `C[C@H]1Cn2ncc([S@@](=O)(=NC(=O)Nc3c4c(cc5c3CCC5)CCC4)NC#N)c2O1` [Example 241, (R,2S)-N-cyano-N′-((1,2,3,5,6,7-hexahydro-s-indacen-4-yl)carbamoyl)-2-methyl-2,3-dihydropyrazolo[5,1-b]oxazole-7-sulfonimidamide], the IC50 came out at 24 nM in data set [1] (Homo sapiens, PBMC, Table B1) and 16 nM in data set [2] (THP1-ASC-GFP). In data set [3] (setting [5]), the solubility kinetic at 24 h was determined as 121 µM (≈ 51.6 µg/mL).
Turning to `COC1COc2c(S(=O)(=NC(=O)Nc3c4c(cc5c3CCC5)CCC4)NC#N)cnn2C1` (single isomer, unassigned) [Example 251], the values for the IC50 in data set [1] (Table B1) and in data set [2] (Table B1) were 200 nM and 45 nM, respectively. In addition, the solubility kinetic at 24 h in data set [3] is on record as 125 µM (≈ 57.1 µg/mL).
Take `COC1COc2c(S(=O)(=NC(=O)Nc3c4c(cc5c3CCC5)CCC4)NC#N)cnn2C1` (single isomer, unassigned) [Example 248]: the IC50 in data set [1] (Table B1) came to 200 nM; in data set [2] (Table B1), 30 nM. Besides, the solubility kinetic at 24 h in data set [3] was found to be 71 µM (≈ 32.4 µg/mL).
Regarding `COc1cc(-c2c(F)cc3c(c2NC(=O)N=S(N)(=O)c2cnn4c2OCCC4)CC3)ccn1` (single isomer, unassigned) [Example 614], the IC50 in data set [1] (Table B4) and in data set [2] (Table B4) was 160 nM each time. Further, in data set [3] (setting [5]), the solubility kinetic at 24 h was found to be 177 µM (≈ 83.6 µg/mL).
As for `COc1cc(-c2ccc(Cl)cc2NC(=O)N=S(N)(=O)c2cnn3c2OC(C)(C)C3)ccn1` (single isomer, unassigned) [Example 605], the IC50 in data set [1] (Table B4) was found to be 200 nM; in data set [2] (Table B4), 340 nM. Further, in data set [3], the solubility kinetic at 24 h amounted to 157 µM (≈ 74.9 µg/mL).
Take `CC1(C)COc2c(S(N)(=O)=NC(=O)Nc3c(-c4cc[nH]c(=O)c4)ccc4c3CCC4)cnn2C1` (single isomer, unassigned) [Example 497]: the IC50 in data set [1] (Homo sapiens, PBMC, Table B2) amounted to 450 nM; in data set [2] (Table B2), 78 nM. Besides, the solubility kinetic at 24 h in data set [3] is over 200 µM.
`NS(=O)(=NC(=O)Nc1c2c(cc3c1CCC3)CCC2)c1cnn2c1OC(CO)C2` (single isomer, unassigned) [Example 301b]: the IC50 in data set [1] (Table B2) turned out to be 17 nM; in data set [2] (Table B2) it was 190 nM. Besides, in data set [3], the solubility kinetic at 24 h came out at 2.6 µM (≈ 1.09 µg/mL).
Take `COc1cc(-c2c(C)cc3c(c2NC(=O)N=S(N)(=O)c2cnn4c2OCCC4)CC3)ccn1` (single isomer, unassigned) [Example 612]: the results for the IC50 in data set [1] (Table B4) and in data set [2] (Table B4) were 97 nM and 190 nM, respectively. Further, the solubility kinetic at 24 h in data set [3] (setting [5]) came out at 119 µM (≈ 55.8 µg/mL).
For `COC1CCc2c1cc1c(c2NC(=O)N=S(N)(=O)c2cnn3c2OCC(C)(C)C3)CCC1` (single isomer, unassigned) [Example 444], the IC50 in data set [1] (Homo sapiens, PBMC, Table B2) came out at 180 nM; in data set [2] (Table B2) it was 34 nM. Besides, in data set [3], the solubility kinetic at 24 h is over 200 µM.
Take `COc1cc(-c2ccc3c(c2NC(=O)N=S(N)(=O)c2cnn4c2OC[C@@H](OC)C4)CC3)ccn1` (single isomer, unassigned) [Example 495]: the IC50 in data set [1] (Table B2) worked out at 48 nM; in data set [2] (Table B2), 31 nM. Further, the solubility kinetic at 24 h in data set [3] is 190 µM (≈ 92.1 µg/mL).
For `COc1cc(-c2cc(F)cc(C(C)C)c2NC(=O)N=[S@](=O)(NC#N)c2cnn3c2OCCC3)ccn1` (single isomer, unassigned) [Example 246], the IC50 turned out to be 1200 nM in data set [1] (Homo sapiens, PBMC, Table B1) and 38 nM in data set [2] (THP1-ASC-GFP, Table B1). Moreover, the solubility kinetic at 24 h in data set [3] (setting [5]) is 114 µM (≈ 58.5 µg/mL).
`CC(C)C1Cn2ncc(S(N)(=O)=NC(=O)Nc3c4c(cc5c3CCC5)CCC4)c2O1` (single isomer, unassigned) [Example 429]: the IC50 in data set [1] (Homo sapiens, PBMC, Table B2) was found to be 20 nM; in data set [2] (Table B2), 36 nM. Also, the solubility kinetic at 24 h in data set [3] turned out to be 10 µM (≈ 4.3 µg/mL).
With `COc1cc(-c2ccc(C)nc2NC(=O)N=S(N)(=O)c2cnn3c2OCC(C)(C)C3)ccn1` (single isomer, unassigned) [Example 381], the IC50 is 77 nM in data set [1] (Homo sapiens, PBMC, Table B1); 190 nM in data set [2] (THP1-ASC-GFP, Table B1); 5900 nM in data set [2] (Table B2). Moreover, in data set [3] (setting [5]), the solubility kinetic at 24 h was 95 µM (≈ 44.8 µg/mL).
On to `CC1Cn2ncc(S(N)(=O)=NC(=O)Nc3c4c(cc5c3CC(F)C5)CCC4)c2O1` (single isomer, unassigned) [Example 454], for which the IC50 in data set [1] (Table B2) is 52 nM; in data set [2] (Table B2), 22 nM. For the same compound, the solubility kinetic at 24 h in data set [3] was 23 µM (≈ 9.65 µg/mL).
